Data taken from ChEMBL document CHEMBL5625251, “Anti-influenza virus activities and mechanism of antrafenine analogs” (Eur J Med Chem, 2023).
Activity calls are given as the source filed them. The calls are words filed in the database; no cut-off is given here.

How the values were obtained:
[1] = Cytotoxicity against MDCK cells assessed as reduction in cell viability incubated for 48 hrs by MTT assay; type: toxicity, cell-based, Canis lupus familiaris; settings: dog
[2] = tested on: Influenza A virus; test: Antiviral activity against Influenza A virus A/WSN/33(H1N1) infected in MDCK cells assessed as inhibition of viral growth at 6.25 uM pre-infected for 1 hr followed by compound addition and measured 24 hrs post infection by plaque assay relative to control; type: functional; settings: time 23 hrs
[3] = tested on: Influenza A virus; test: Antiviral activity against Influenza A virus A/WSN/33(H1N1) infected in MDCK cells assessed as inhibition of viral growth at 100 uM pre-infected for 1 hr followed by compound addition and measured 24 hrs post infection by plaque assay relative to control; type: functional; settings: time 23 hrs
[4] = tested on: Influenza A virus; test: Antiviral activity against Influenza A virus A/WSN/33(H1N1) infected in MDCK cells assessed as inhibition of viral growth at 50 uM pre-infected for 1 hr followed by compound addition and measured 24 hrs post infection by plaque assay relative to control; type: functional; settings: time 23 hrs
[5] = tested on: Influenza A virus; test: Antiviral activity against Influenza A virus A/WSN/33(H1N1) infected in MDCK cells assessed as inhibition of viral growth 12.5 uM pre-infected for 1 hr followed by compound addition and measured 24 hrs post infection by plaque assay relative to control; type: functional
[6] = tested on: MDCK; test: Cytotoxicity against MDCK cells assessed as reduction in cell viability at 12.5 uM incubated for 48 hrs by MTT assay; type: toxicity, cell-based, Canis lupus familiaris; settings: dog
[7] = tested on: Influenza A virus; test: Antiviral activity against Influenza A virus A/WSN/33(H1N1) infected in MDCK cells assessed as reduction in virus-induced cytopathic effect at 100 uM pre-infected with cells for 1 hrs followed by compound addition and measured after 2 days by MTT assay; type: functional, organism-based; settings: time 2.0 day
[8] = tested on: Influenza A virus; test: Antiviral activity against Influenza A virus A/WSN/33(H1N1) infected in MDCK cells MOI 0.1 assessed as reduction in viral titre at 100 uM pre-infected with cells for 6 hrs followed by compound addition and measured after 6 to 8 hrs post infection by time of addition assay; type: functional, organism-based
[9] = tested on: Influenza A virus; test: Antiviral activity against Influenza A virus A/WSN/33(H1N1) infected in MDCK cells MOI 0.1 assessed as reduction in viral titre at 100 uM pre-infected with cells for 6 hrs followed by compound addition and measured after 4 to 6 hrs post infection by time of addition assay; type: functional, organism-based
[10] = tested on: Influenza A virus; test: Antiviral activity against Influenza A virus A/HK/1/68 infected in MDCK cells MOI 0.01 assessed as inhibition of viral growth pre-infected for 1 hr followed by compound addition and measured 24 hrs post infection by plaque assay; type: functional, organism-based; settings: A/HK/1/68, MDCK
[11] = tested on: Influenza A virus; test: Antiviral activity against Influenza A virus A/PR/8/34 infected in MDCK cells MOI 0.01 assessed as inhibition of viral growth pre-infected for 1 hr followed by compound addition and measured 24 hrs post infection by plaque assay; type: functional, organism-based; settings: A/PR/8/34, MDCK
[12] = Selectivity index, ratio of CC50 for cytotoxicity against African green monkey Vero cells assessed as reduction in cell viability to IC50 for inhibition of Influenza A virus A/WSN/33(H1N1) Ribonucleoprotein transfected in Vero cells; type: toxicity, cell-based; settings: read-out: Ratio CC50/IC50
[13] = tested on: Influenza A virus; test: Antiviral activity against Influenza A virus A/WSN/33(H1N1) infected in MDCK cells MOI 0.1 assessed as reduction in viral titre at 100 uM pre-infected with cells for 6 hrs followed by compound addition and measured after 2 to 4 hrs post infection by time of addition assay; type: functional, organism-based
[14] = tested on: Influenza A virus; test: Antiviral activity against Influenza A virus A/WSN/33(H1N1) infected in MDCK cells assessed as inhibition of viral growth pre-infected for 1 hr followed by compound addition and measured 24 hrs post infection by plaque assay; type: functional, organism-based
[15] = Cytotoxicity against African green monkey Vero cells assessed as reduction in cell viability incubated for 48 hrs by MTT assay; type: toxicity, cell-based; settings: chlorocebus sabaeus
[16] = Selectivity index, ratio of CC50 for cytotoxicity against MDCK cells assessed as reduction in cell viability to IC50 for antiviral activity against Influenza A virus B/Florida/4/06 infected in MDCK cells MOI 0.01 assessed as inhibition of viral growth; type: toxicity, cell-based; settings: dog, read-out: Ratio CC50/IC50
[17] = tested on: Influenza A virus; test: Antiviral activity against Influenza A virus A/WSN/33(H1N1) infected in chicken erythrocytes assessed as reduction in neuraminidase level incubated for 2 hrs; type: functional, organism-based; settings: Erythrocyte
[18] = Selectivity index, ratio of CC50 for cytotoxicity against MDCK cells assessed as reduction in cell viability to IC50 for antiviral activity against Influenza A virus A/WSN/33(H1N1) infected in MDCK cells assessed as inhibition of viral growth; type: toxicity, cell-based; settings: dog, read-out: Ratio CC50/IC50
[19] = Selectivity index, ratio of CC50 for cytotoxicity against MDCK cells assessed as reduction in cell viability to IC50 for antiviral activity against Influenza A virus A/HK/1/68 infected in MDCK cells MOI 0.01 assessed as inhibition of viral growth; type: toxicity, cell-based; settings: dog, read-out: Ratio CC50/IC50
[20] = Inhibition of Influenza A virus A/WSN/33(H1N1) Ribonucleoprotein transfected in Vero cells incubated for 48 hrs by spectrophotometer analysis; type: cell-based
[21] = tested on: Influenza A virus; test: Antiviral activity against Influenza A virus B/Florida/4/06 infected in MDCK cells MOI 0.01 assessed as inhibition of viral growth pre-infected for 1 hr followed by compound addition and measured 24 hrs post infection by plaque assay; type: functional, organism-based; settings: B/Florida/4/06, MDCK
[22] = tested on: Influenza A virus; test: Antiviral activity against Influenza A virus A/WSN/33(H1N1) infected in chicken erythrocytes assessed as reduction in Haemagglutinin level preincubated for 30 mins followed by viral infection and measured after 40 mins; type: functional, organism-based; settings: Erythrocyte, time 70.0 min
[23] = Selectivity index, ratio of CC50 for cytotoxicity against MDCK cells assessed as reduction in cell viability to IC50 for antiviral activity against Influenza A virus A/PR/8/34 infected in MDCK cells MOI 0.01 assessed as inhibition of viral growth; type: toxicity, cell-based; settings: dog, read-out: Ratio CC50/IC50
[24] = tested on: Influenza A virus; test: Antiviral activity against Influenza A virus A/WSN/33(H1N1) infected in MDCK cells MOI 0.1 assessed as reduction in viral titre at 100 uM pre-infected with cells for 6 hrs followed by compound addition and measured after 2 hrs post infection by time of addition assay; type: functional, organism-based
[25] = tested on: Influenza A virus; test: Antiviral activity against Influenza A virus A/WSN/33(H1N1) infected in MDCK cells assessed as reduction in virus-induced cytopathic effect at 25 uM pre-infected with cells for 1 hrs followed by compound addition and measured after 2 days by MTT assay; type: functional, organism-based; settings: time 2.0 day

SMILES: CCN(CC)CCCNC(=O)c1ccccc1Nc1ccnc2ccc(Cl)cc12
- CC50 at 48 h [1]: 38 µM
- inhibition at 6.25 µM [2]: 15.3%

SMILES: O=C(CNC(=O)c1ccccc1Nc1ccnc2cc(C(F)(F)F)ccc12)NCc1ccccc1
- CC50 at 48 h [1]: > 100 µM

SMILES: NC(=O)c1ccccc1Nc1ccnc2ccc(Cl)cc12
- inhibition at 100 µM [3]: 22.5%
- CC50 at 48 h [1]: > 100 µM

SMILES: O=C(OCCN1CCN(c2cccc(C(F)(F)F)c2)CC1)c1ccccc1Nc1ccnc2cc(C(F)(F)F)ccc12 [ANTRAFENINE]
- CC50 at 48 h [1]: > 100 µM

SMILES: O=C(NCCN1CCN(c2ccccc2OC(F)(F)F)CC1)c1ccccc1Nc1ccnc2ccc(Cl)cc12
- CC50 at 48 h [1]: > 100 µM
- inhibition at 50 µM [4]: 50%

SMILES: CN(C)CCNC(=O)c1ccccc1Nc1ccnc2cc(C(F)(F)F)ccc12
- inhibition ([5]; time 23.0 hrs): inactive
- CC50 at 48 h [1]: 17.4 µM

SMILES: O=C(NCCN1CCN(c2ccccc2Cl)CC1)c1ccccc1Nc1ccnc2ccc(Cl)cc12
- Activity [6]: Toxic

SMILES: O=C(CNC(=O)c1ccccc1Nc1ccnc2ccc(Cl)cc12)NCc1ccccc1
- Activity [7]: Active
- CC50 at 48 h [1]: > 100 µM

SMILES: Cc1ccc(N2CCN(CCNC(=O)c3ccccc3Nc3ccnc4ccc(Cl)cc34)CC2)c(C)c1
- CC50 at 48 h [1]: 22.9 µM

SMILES: O=C(Nc1cccc([N+](=O)[O-])c1)c1ccccc1Nc1ccnc2cc(C(F)(F)F)ccc12
- Activity [8]: inactive
- Activity [9]: Active
- IC50 [10]: 8.5 µM
- IC50 [11]: 5.5 µM
- selectivity ratio [12]: > 7
- Activity [13]: Active
- IC50 [14]: 5.53 µM
- CC50 at 48 h [15]: > 100 µM
- inhibition at 100 µM [3]: 99.8%
- selectivity ratio [16]: > 8
- Activity [17]: inactive
- selectivity ratio [18]: > 18
- selectivity ratio [19]: > 12
- IC50 [20]: 14 µM
- CC50 at 48 h [1]: > 100 µM
- IC50 [21]: 12 µM
- Activity [22]: inactive
- selectivity ratio [23]: > 18
- Activity [24]: Active
- Activity [25]: Active

SMILES: O=C(NCCN1CCN(c2cccc(Cl)c2Cl)CC1)c1ccccc1Nc1ccnc2ccc(Cl)cc12
- CC50 at 48 h [1]: > 50 µM

SMILES: O=C(Nc1ccccc1)c1ccccc1Nc1ccnc2cc(C(F)(F)F)ccc12
- CC50 at 48 h [1]: > 100 µM

SMILES: COC(=O)c1ccccc1Nc1ccnc2cc(C(F)(F)F)ccc12
- inhibition at 100 µM [3]: 17.9%
- CC50 at 48 h [1]: > 100 µM

SMILES: O=C(NCC(=O)N1CCOCC1)c1ccccc1Nc1ccnc2ccc(Cl)cc12
- inhibition at 100 µM [3]: 65.4%
- CC50 at 48 h [1]: > 100 µM

SMILES: O=C(O)c1ccccc1Nc1ccnc2ccc(Cl)cc12
- CC50 at 48 h [1]: > 100 µM
- inhibition at 50 µM [4]: 3.5%

SMILES: NC(=O)c1ccccc1Nc1ccnc2cc(C(F)(F)F)ccc12
- CC50 at 48 h [1]: > 100 µM

SMILES: Cc1ccccc1N1CCN(C(=O)CNC(=O)c2ccccc2Nc2ccnc3ccc(Cl)cc23)CC1
- inhibition at 12.5 µM ([5]; time 23 hrs): 55.8%
- CC50 at 48 h [1]: > 100 µM

SMILES: CCOC(=O)c1ccccc1Nc1ccnc2cc(C(F)(F)F)ccc12
- inhibition at 100 µM [3]: 9.09%
- CC50 at 48 h [1]: > 100 µM

SMILES: O=C(NCc1ccccc1)c1ccccc1Nc1ccnc2ccc(Cl)cc12
- CC50 at 48 h [1]: 45.3 µM

SMILES: O=C(NC12CC3CC(CC(C3)C1)C2)c1ccccc1Nc1ccnc2ccc(Cl)cc12
- Activity [6]: Toxic

SMILES: O=C(NCCCO)c1ccccc1Nc1ccnc2ccc(Cl)cc12
- inhibition at 100 µM [3]: 69.5%
- CC50 at 48 h [1]: > 100 µM
